Reference: BindingDB's records for doi:10.1021/jm00094a001 (Abbott Laboratories, 1992)
pIC50: −log10 of the molar value. *1 amine or outer side, *2 acyl side, *3 side chain or, on linkers, in order; H or OH if unused. Where a SMILES comes first, the peptide text is derived from it. [ ]: non-standard residue; d: D form. The star is where a group is joined. Hydrocinnamoyl(4-OSO3H) = O=C(CCc1ccc(OS(=O)(=O)O)cc1)*; X2 = O=C([C@@H]1CC(OS(=O)(=O)O)CN1[*:1])[*:2]; X5 = CCC[C@H]1CCN([*:1])[C@@H]1C(=O)[*:2]; X4 = O=C(c1ccc2cc(OS(=O)(=O)O)ccc2c1)*; X1 = CCCC1CCN([*:1])[C@@H]1C(=O)[*:2]; X3 = O=C(/C(=C/c1ccccc1)N[*:1])[*:2]; NMeF = CN[C@@H](Cc1ccccc1)C(=O)O; Nle = CCCC[C@H](N)C(=O)O; Ava = NCCCCC(=O)O

Assays:
[1] = biological target: Gastrin/cholecystokinin type B receptor (Cavia porcellus); assay: Evaluated in vitro for its binding affinity towards cholecystokinin type B receptor of guinea pig cortex
[2] = biological target: Gastrin/cholecystokinin type B receptor (Cavia porcellus); assay: In vitro binding affinity towards Cholecystokinin type B receptor of guinea pig cortex
[3] = biological target: Cholecystokinin receptor type A (Cavia porcellus); assay: Evaluated in vitro for its binding affinity towards cholecystokinin type A receptor of guinea pig pancreas
[4] = biological target: Gastrin/cholecystokinin type B receptor (Cavia porcellus); assay: Evaluated in vitro for its binding affinity towards cholecystokinin type B receptor of guinea pig cortex; remark: listed apart in the source

CCCC[C@H](NC(=O)CCc1ccc(OS(=O)(=O)O)cc1)C(=O)NCC(=O)N[C@@H](Cc1c[nH]c2ccccc12)C(=O)N[C@@H](CCCC)C(=O)N[C@@H](CC(=O)O)C(=O)N[C@@H](Cc1ccccc1)C(N)=O
pIC50 [1]: 9.30

CCCC[C@H](NC(=O)[C@H](Cc1c[nH]c2ccccc12)NC(=O)CNC(=O)[C@@H](CCCC)NC(=O)CCc1ccc(OS(=O)(=O)O)cc1)C(=O)N[C@@H](CC(=O)O)C(=O)N[C@@H](Cc1ccccc1)C(N)=O
pIC50 [2]: 8.10

CCCC[C@H](NC(=O)[C@H](Cc1c[nH]c2ccccc12)NC(=O)CN1CC[C@H](NC(=O)CCc2ccc(OS(=O)(=O)O)cc2)C1=O)C(=O)N[C@@H](CC(=O)O)C(=O)N[C@@H](Cc1ccccc1)C(N)=O
pIC50 [1]: 7.82

CCCC[C@H](NC(=O)c1ccc2cc(OS(=O)(=O)O)ccc2c1)C(=O)NCC(=O)N[C@@H](Cc1c[nH]c2ccccc12)C(=O)N[C@@H](CCCC)C(=O)N[C@@H](CC(=O)O)C(=O)N[C@@H](Cc1ccccc1)C(N)=O (X4-[Nle]GW[Nle]DF-NH2)
pIC50 [1]: 7.49

CC(C)C[C@H](NC(=O)[C@H](Cc1c[nH]c2ccccc12)NC(=O)CCCCNC(=O)CCc1ccc(OS(=O)(=O)O)cc1)C(=O)N[C@@H](CC(=O)O)C(=O)N[C@@H](Cc1ccccc1)C(N)=O ({Hydrocinnamoyl(4-OSO3H)-Ava}-WLDF-NH2)
pIC50 [1]: 8.96

CCCC[C@H](NC(=O)[C@H](Cc1c[nH]c2ccccc12)NC(=O)CNC(=O)[C@H](CC(C)C)NC(=O)CCc1ccc(OS(=O)(=O)O)cc1)C(=O)N[C@@H](CC(=O)O)C(=O)N[C@@H](Cc1ccccc1)C(N)=O ({Hydrocinnamoyl(4-OSO3H)}-LGW[Nle]DF-NH2)
pIC50 [1]: 9.23

CCC[C@H]1CCN(C(=O)[C@H](Cc2c[nH]c3ccccc23)NC(=O)CNC(=O)[C@@H]2CCCN2C(=O)CCc2ccc(OS(=O)(=O)O)cc2)[C@@H]1C(=O)N[C@@H](CC(=O)O)C(=O)N(C)[C@@H](Cc1ccccc1)C(N)=O ({Hydrocinnamoyl(4-OSO3H)}-PGW[X5]D[NMeF]-NH2)
pIC50 [1]: 9.05

CCCC[C@H](NC(=O)CCc1ccc(OS(=O)(=O)O)cc1)C(=O)NCC(=O)N[C@@H](Cc1c[nH]c2ccccc12)C(=O)N[C@@H](CCCC)C(=O)N[C@@H](CC(=O)O)C(=O)N/C(=C\c1ccccc1)C(N)=O ({Hydrocinnamoyl(4-OSO3H)}-[Nle]GW[Nle]D[X3]-NH2)
pIC50 [3]: 8.28

CCCC[C@H](NC(=O)CCc1ccc(OS(=O)(=O)O)cc1)C(=O)NCC(=O)N[C@@H](Cc1c[nH]c2ccccc12)C(=O)N[C@@H](CCCC)C(=O)N1CC(OS(=O)(=O)O)C[C@H]1C(=O)N[C@@H](Cc1ccccc1)C(N)=O (some centres undefined) ({Hydrocinnamoyl(4-OSO3H)}-[Nle]GW[Nle][X2]F-NH2)
pIC50 [4]: 6.85 | pIC50 [3]: 7.80

CCCC[C@H](NC(=O)CCc1ccc(OS(=O)(=O)O)cc1)C(=O)NCC(=O)N[C@@H](Cc1c[nH]c2ccccc12)C(=O)N1CCC(CCC)[C@H]1C(=O)N[C@@H](CC(=O)O)C(=O)N(C)[C@@H](Cc1ccccc1)C(N)=O (some centres undefined) ({Hydrocinnamoyl(4-OSO3H)}-[Nle]GW[X1]D[NMeF]-NH2)
pIC50 [4]: 9.52 | pIC50 [3]: 8.38

CCCC[C@H](NC(=O)CCc1ccc(OS(=O)(=O)O)cc1)C(=O)NCC(=O)N[C@@H](Cc1c[nH]c2ccccc12)C(=O)N[C@@H](CCCC)C(=O)N[C@@H](CC(=O)O)C(=O)N(C)[C@@H](Cc1ccccc1)C(N)=O [CCK7 analogue] ({Hydrocinnamoyl(4-OSO3H)}-[Nle]GW[Nle]D[NMeF]-NH2)
pIC50 [4]: 8.00 | pIC50 [3]: 9.00
